Laboratory results from patent publication US9358023B2, “Systems and methods for opening of a tissue barrier” (priority 2009, dated 2016).
“Also recorded” adds a separate entry of the source.

System: blood-brain barrier
Experiment: FUS and microbubble BBB opening: fluorescent dextran delivery to the sonicated hippocampus, quantified as NOD;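 further: male wild-type C57BL/6 mice, left hippocampus sonicated with untargeted right hippocampus as control, read by fluorescence microscopy of frozen horizontal brain sections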
[1] = PL 3.5 cycles, PRF 6.25 kHz, BRF 0.1 Hz, BL 1000 pulses, pressure 0.51
[2] = PL 3.5 cycles, PRF 6.25 kHz, BRF 1 Hz, BL 1000 pulses, pressure 0.51
[3] = PL 3.5 cycles, PRF 6.25 kHz, BRF 2 Hz, BL 1000 pulses, pressure 0.51
[4] = PL 3.5 cycles, PRF 6.25 kHz, BRF 5 Hz, BL 1000 pulses, pressure 0.51
[5] = PL 3.5 cycles, PRF 6.25 kHz, pulses emitted continuously without bursts, pressure 0.51
[6] = PL 3.5 cycles, PRF 25 kHz, BRF 0.1 Hz, BL 1000 pulses, pressure 0.51
[7] = PL 3.5 cycles, PRF 25 kHz, BRF 1 Hz, BL 1000 pulses, pressure 0.51
[8] = PL 3.5 cycles, PRF 25 kHz, BRF 2 Hz, BL 1000 pulses, pressure 0.51
[9] = PL 3.5 cycles, PRF 25 kHz, BRF 5 Hz, BL 1000 pulses, pressure 0.51
[10] = PL 3.5 cycles, PRF 25 kHz, BRF 10 Hz, BL 1000 pulses, pressure 0.51
[11] = PL 3.5 cycles, PRF 25 kHz, pulses emitted continuously without bursts, pressure 0.51
[12] = PL 3.5 cycles, PRF 100 kHz, BRF 0.1 Hz, BL 1000 pulses, pressure 0.51
[13] = PL 3.5 cycles, PRF 100 kHz, BRF 1 Hz, BL 1000 pulses, pressure 0.51
[14] = PL 3.5 cycles, PRF 100 kHz, BRF 2 Hz, BL 1000 pulses, pressure 0.51
[15] = PL 3.5 cycles, PRF 100 kHz, BRF 5 Hz, BL 1 pulse, pressure 0.51
[16] = PL 3.5 cycles, PRF 100 kHz, BRF 5 Hz, BL 5 pulses, pressure 0.51
[17] = PL 3.5 cycles, PRF 100 kHz, BRF 5 Hz, BL 10 pulses, pressure 0.51
[18] = PL 3.5 cycles, PRF 100 kHz, BRF 5 Hz, BL 50 pulses, pressure 0.51
[19] = PL 3.5 cycles, PRF 100 kHz, BRF 5 Hz, BL 100 pulses, pressure 0.51
[20] = PL 3.5 cycles, PRF 100 kHz, BRF 5 Hz, BL 500 pulses, pressure 0.51
[21] = PL 3.5 cycles, PRF 100 kHz, BRF 5 Hz, BL 1000 pulses, pressure 0.13
[22] = PL 3.5 cycles, PRF 100 kHz, BRF 5 Hz, BL 1000 pulses, pressure 0.25
[23] = PL 3.5 cycles, PRF 100 kHz, BRF 5 Hz, BL 1000 pulses, pressure 0.37
[24] = PL 3.5 cycles, PRF 100 kHz, BRF 5 Hz, BL 1000 pulses, pressure 0.51
[25] = PL 3.5 cycles, PRF 100 kHz, BRF 10 Hz, BL 1000 pulses, pressure 0.51
[26] = PL 3.5 cycles, PRF 100 kHz, pulses emitted continuously without bursts, pressure 0.51
[27] = microbubble 0.01 μL/g, PRF 10 Hz, PL 20 ms, 0.46 MPa, 11-minute sonication
[28] = microbubble 0.05 μL/g injected over 180 seconds, PRF 5 Hz, PL 0.2 ms, 0.46 MPa
[29] = microbubble 0.05 μL/g, PRF 0.1 Hz, PL 20 ms, 0.46 MPa, 11-minute sonication
[30] = microbubble 0.05 μL/g, PRF 1 Hz, PL 20 ms, 0.46 MPa, 11-minute sonication
[31] = microbubble 0.05 μL/g, PRF 5 Hz, PL 0.2 ms, 0.46 MPa, 11-minute sonication
[32] = microbubble 0.05 μL/g, PRF 5 Hz, PL 20 ms, 0.46 MPa, 11-minute sonication
[33] = microbubble 0.05 μL/g, PRF 10 Hz, PL 0.03 ms, 0.46 MPa, 11-minute sonication
[34] = microbubble 0.05 μL/g, PRF 10 Hz, PL 0.1 ms, 0.46 MPa, 11-minute sonication
[35] = microbubble 0.05 μL/g, PRF 10 Hz, PL 0.2 ms, 0.46 MPa, 11-minute sonication
[36] = microbubble 0.05 μL/g, PRF 10 Hz, PL 1 ms, 0.46 MPa, 11-minute sonication
[37] = microbubble 0.05 μL/g, PRF 10 Hz, PL 2 ms, 0.46 MPa, 11-minute sonication
[38] = microbubble 0.05 μL/g, PRF 10 Hz, PL 10 ms, 0.46 MPa, 11-minute sonication
[39] = microbubble 0.05 μL/g, PRF 10 Hz, PL 20 ms, 0.46 MPa, 11-minute sonication
[40] = microbubble 0.05 μL/g, PRF 10 Hz, PL 20 ms, 0.46 MPa, microbubble and dextran 1 minute before a 30-second sonication
[41] = microbubble 0.05 μL/g, PRF 10 Hz, PL 30 ms, 0.46 MPa, 11-minute sonication
[42] = microbubble 0.05 μL/g, PRF 25 Hz, PL 20 ms, 0.46 MPa, 11-minute sonication
[43] = microbubble 0.25 μL/g, PRF 10 Hz, PL 20 ms, 0.46 MPa, 11-minute sonication
[44] = sham mouse, no ultrasound applied, microbubble 0.05 μL/g

## dextran
100-kHz PRF, 5-Hz BRF, 0.51 MPa, 1000 pulse BL
  increase in NOD (significance): Significant increases
[1]
  Incidence of NOD increase: 2/3
  NOD (mean ± std. dev.): 0.68 ± 0.47 × 1e9
[2]
  Incidence of NOD increase: 2/3
  NOD (mean ± std. dev.): 0.78 ± 0.85 × 1e9
[3]
  Incidence of NOD increase: 1/3
  NOD (mean ± std. dev.): −0.16 ± 0.67 × 1e9
[4]
  Incidence of NOD increase: 2/3
  NOD (mean ± std. dev.): 0.56 ± 0.95 × 1e9
[5]
  Incidence of NOD increase: 1/3
  NOD (mean ± std. dev.): −0.11 ± 0.35 × 1e9
[6]
  Incidence of NOD increase: 2/3
  NOD (mean ± std. dev.): 0.35 ± 0.10 × 1e9
[7]
  Incidence of NOD increase: 3/3
  NOD (mean ± std. dev.): 1.92 ± 0.10 × 1e9
[8]
  Incidence of NOD increase: 3/3
  NOD (mean ± std. dev.): 3.34 ± 1.35 × 1e9
[9]
  Incidence of NOD increase: 3/3
  NOD (mean ± std. dev.): 1.48 ± 0.77 × 1e9
[10]
  Incidence of NOD increase: 2/3
  NOD (mean ± std. dev.): 1.31 ± 1.35 × 1e9
[11]
  Incidence of NOD increase: 1/3
  NOD (mean ± std. dev.): 0.30 ± 0.20 × 1e9
[12]
  Incidence of NOD increase: 2/3
  NOD (mean ± std. dev.): 0.99 ± 0.85 × 1e9
[13]
  Incidence of NOD increase: 3/3
  NOD (mean ± std. dev.): 1.45 ± 0.73 × 1e9
[14]
  Incidence of NOD increase: 3/3
  NOD (mean ± std. dev.): 3.08 ± 2.76 × 1e9
[15]
  Incidence of NOD increase: 0/3
  NOD (mean ± std. dev.): 0.01 ± 0.11 × 1e9
[16]
  Incidence of NOD increase: 1/3
  NOD (mean ± std. dev.): 0.13 ± 0.17 × 1e9
[17]
  Incidence of NOD increase: 3/3
  NOD (mean ± std. dev.): 2.14 ± 1.33 × 1e9
[18]
  Incidence of NOD increase: 3/3
  NOD (mean ± std. dev.): 2.20 ± 0.54 × 1e9
[19]
  Incidence of NOD increase: 3/3
  NOD (mean ± std. dev.): 3.60 ± 0.95 × 1e9
[20]
  Incidence of NOD increase: 3/3
  NOD (mean ± std. dev.): 3.30 ± 0.58 × 1e9
[21]
  Incidence of NOD increase: 1/3
  NOD (mean ± std. dev.): 0.10 ± 0.21 × 1e9
[22]
  Incidence of NOD increase: 1/3
  NOD (mean ± std. dev.): 0.10 ± 0.16 × 1e9
[23]
  Incidence of NOD increase: 2/3
  NOD (mean ± std. dev.): 0.60 ± 0.48 × 1e9
[24]
  Incidence of NOD increase: 3/3
  NOD (mean ± std. dev.): 6.14 ± 1.45 × 1e9
[25]
  Incidence of NOD increase: 3/3
  NOD (mean ± std. dev.): 2.01 ± 1.44 × 1e9
[26]
  Incidence of NOD increase: 1/3
  NOD (mean ± std. dev.): 0.21 ± 0.32 × 1e9
Bursts of 3.5-cycle pulses, 100-kHz PRF, 5-Hz BRF, 0.51 MPa, 1000 pulse BL, listed as 3-kDa dextran
  spatial distribution of delivered dextran fluorescence in the target ROI: distributed most homogeneously and across a larger area than the other two molecular weights; also recorded: homogeneous and diffuse spatial distribution
[27]
  NOD (mean ± std. dev.): 2.89 ± 1.99 × 1e9
  Number of mice with delivered dextran: 5/5
[28]
  NOD (mean ± std. dev.): 1.58 ± 1.37 × 1e9
  Number of mice with delivered dextran: 5/5
[29]
  NOD (mean ± std. dev.): −0.17 ± 0.17 × 1e9
  Number of mice with delivered dextran: 0/5
[30]
  NOD (mean ± std. dev.): 3.77 ± 4.52 × 1e9
  Number of mice with delivered dextran: 3/5
[31]
  NOD (mean ± std. dev.): 2.02 ± 1.38 × 1e9
  Number of mice with delivered dextran: 5/5
[32]
  NOD (mean ± std. dev.): 4.21 ± 2.05 × 1e9
  Number of mice with delivered dextran: 5/5
[33]
  NOD (mean ± std. dev.): 0.78 ± 1.41 × 1e9
  Number of mice with delivered dextran: 2/5
[34]
  NOD (mean ± std. dev.): 1.20 ± 1.05 × 1e9
  Number of mice with delivered dextran: 5/6
[35]
  NOD (mean ± std. dev.): 0.98 ± 0.67 × 1e9
  Number of mice with delivered dextran: 5/5
[36]
  NOD (mean ± std. dev.): 4.07 ± 3.71 × 1e9
  Number of mice with delivered dextran: 5/5
[37]
  NOD (mean ± std. dev.): 1.84 ± 1.44 × 1e9
  Number of mice with delivered dextran: 4/5
[38]
  NOD (mean ± std. dev.): 4.76 ± 2.03 × 1e9
  Number of mice with delivered dextran: 5/5
[39]
  NOD (mean ± std. dev.): 4.45 ± 2.08 × 1e9
  Number of mice with delivered dextran: 5/5
[40]
  NOD (mean ± std. dev.): 4.91 ± 0.94 × 1e9
  Number of mice with delivered dextran: 5/5
[41]
  NOD (mean ± std. dev.): 5.77 ± 1.73 × 1e9
  Number of mice with delivered dextran: 5/5
[42]
  NOD (mean ± std. dev.): 4.58 ± 1.40 × 1e9
  Number of mice with delivered dextran: 5/5
[43]
  NOD (mean ± std. dev.): 5.34 ± 2.12 × 1e9
  Number of mice with delivered dextran: 5/5
[44]
  NOD (mean ± std. dev.): 0.01 ± 0.23 × 1e9
  Number of mice with delivered dextran: 0/5
